Values of other authors as cited in PubChem BioAssay AID1259409 (Chemical Carcinogenesis Research Information System (CCRIS), 2018).

Test system: rodent chemically induced tumor inhibition, incidence and multiplicity
Assay: CCRIS tumor inhibitor studies

## c1cc2ccc3cccc4ccc(c1)c2c34
Carcinogen: BENZO[A]PYRENE, 50-32-8, Dose [Inhibitor]: 4 UG IN 0.1 ML ACETONE 3/WK ADMINISTERED SIMULTANEOUSLY WITH CARCINOGEN FOR DURATION OF STUDY (STUDY DURATION: 368 D), Route [Inhibitor]: DERMAL, Species: MOUSE, Strain/Sex: ICR/FEMALE, Target Tissue: Type of Lesion: SKIN: PAPILLOMA, Dose [Carcinogen]: 5 UG IN 0.1 ML ACETONE 3/WK FOR DURATION OF STUDY, Promoter: NONE USED
  tumour outcome (control, treated, inhibition, significance): 14/50 (28%), 12/50 (24%), 14%, not calculated
Carcinogen: BENZO[A]PYRENE, 50-32-8, Dose [Inhibitor]: 4 UG IN 0.1 ML ACETONE 3/WK ADMINISTERED SIMULTANEOUSLY WITH CARCINOGEN FOR DURATION OF STUDY (STUDY DURATION: 368 D), Route [Inhibitor]: DERMAL, Species: MOUSE, Strain/Sex: ICR/FEMALE, Target Tissue: Type of Lesion: SKIN: SQUAMOUS CARCINOMA, Dose [Carcinogen]: 5 UG IN 0.1 ML ACETONE 3/WK FOR DURATION OF STUDY, Promoter: NONE USED
  tumour outcome (control, treated, inhibition, significance): 10/50 (20%), 6/50 (12%), 40%, not calculated
Carcinogen: BENZO[A]PYRENE, 50-32-8, Dose [Inhibitor]: 12 UG IN 0.1 ML ACETONE 3/WK ADMINISTERED SIMULTANEOUSLY WITH CARCINOGEN FOR DURATION OF STUDY (STUDY DURATION: 368 D), Route [Inhibitor]: DERMAL, Species: MOUSE, Strain/Sex: ICR/FEMALE, Target Tissue: Type of Lesion: SKIN: PAPILLOMA, Dose [Carcinogen]: 5 UG IN 0.1 ML ACETONE 3/WK FOR DURATION OF STUDY, Promoter: NONE USED
  tumour outcome (control, treated, inhibition, significance): 14/50 (28%), 26/50 (52%), -86%, not calculated
Carcinogen: BENZO[A]PYRENE, 50-32-8, Dose [Inhibitor]: 12 UG IN 0.1 ML ACETONE 3/WK ADMINISTERED SIMULTANEOUSLY WITH CARCINOGEN FOR DURATION OF STUDY (STUDY DURATION: 368 D), Route [Inhibitor]: DERMAL, Species: MOUSE, Strain/Sex: ICR/FEMALE, Target Tissue: Type of Lesion: SKIN: SQUAMOUS CARCINOMA, Dose [Carcinogen]: 5 UG IN 0.1 ML ACETONE 3/WK FOR DURATION OF STUDY, Promoter: NONE USED
  tumour outcome (control, treated, inhibition, significance): 10/50 (20%), 20/50 (40%), -100%, not calculated
Carcinogen: BENZO[A]PYRENE, 50-32-8, Dose [Inhibitor]: 40 UG IN 0.1 ML ACETONE 3/WK ADMINISTERED SIMULTANEOUSLY WITH CARCINOGEN FOR DURATION OF STUDY (STUDY DURATION: 440 D), Route [Inhibitor]: DERMAL, Species: MOUSE, Strain/Sex: ICR/FEMALE, Target Tissue: Type of Lesion: SKIN: PAPILLOMA, Dose [Carcinogen]: 5 UG IN 0.1 ML ACETONE 3/WK FOR DURATION OF STUDY, Promoter: NONE USED
  tumour outcome (control, treated, inhibition, significance): 16/50 (32%), 35/50 (70%), -119%, not calculated
Carcinogen: BENZO[A]PYRENE, 50-32-8, Dose [Inhibitor]: 40 UG IN 0.1 ML ACETONE 3/WK ADMINISTERED SIMULTANEOUSLY WITH CARCINOGEN FOR DURATION OF STUDY (STUDY DURATION: 440 D), Route [Inhibitor]: DERMAL, Species: MOUSE, Strain/Sex: ICR/FEMALE, Target Tissue: Type of Lesion: SKIN: SQUAMOUS CARCINOMA, Dose [Carcinogen]: 5 UG IN 0.1 ML ACETONE 3/WK FOR DURATION OF STUDY, Promoter: NONE USED
  tumour outcome (control, treated, inhibition, significance): 12/50 (24%), 26/50 (52%), -117%, not calculated

## CC(C)(C)c1cc(Cc2cc(C(C)(C)C)c(O)c(C(C)(C)C)c2)cc(C(C)(C)C)c1O
Carcinogen: BENZO[A]PYRENE, 50-32-8, Dose [Inhibitor]: 0.03 MMOL/G OF DIET DAILY STARTING 7 D BEFORE AND CONTINUING THROUGH 3 D AFTER CARCINOGEN TREATMENT FOLLOWED BY OBSERVAT, Route [Inhibitor]: ORAL, Species: MOUSE, Strain/Sex: ICR/FEMALE, Target Tissue: Type of Lesion: FORESTOMACH: NEOPLASM, Dose [Carcinogen]: 1 MG IN 0.2 ML CORN OIL 2/WK FOR 4 WK, Promoter: NONE USED
  tumour outcome (control, treated, inhibition, significance): 94%, 100%, -6%, not significant

## Oc1cccc(O)c1O
Carcinogen: BENZO[A]PYRENE, 50-32-8, Dose [Inhibitor]: 5 MG IN 0.1 ML ACETONE 3/WK ADMINISTERED SIMULTANEOUSLY WITH CARCINOGEN FOR DURATION OF STUDY (STUDY DURATION: 440 D), Route [Inhibitor]: DERMAL, Species: MOUSE, Strain/Sex: ICR/FEMALE, Target Tissue: Type of Lesion: SKIN: PAPILLOMA, Dose [Carcinogen]: 5 UG IN 0.1 ML ACETONE THAT ALSO CONTAINED AGENT 3/WK, Promoter: NONE USED
  tumour outcome (control, treated, inhibition, significance): 16/50 (32%), 40/50 (80%), -150%, not calculated
Carcinogen: BENZO[A]PYRENE, 50-32-8, Dose [Inhibitor]: 5 MG IN 0.1 ML ACETONE 3/WK ADMINISTERED SIMULTANEOUSLY WITH CARCINOGEN FOR DURATION OF STUDY (STUDY DURATION: 440 D), Route [Inhibitor]: DERMAL, Species: MOUSE, Strain/Sex: ICR/FEMALE, Target Tissue: Type of Lesion: SKIN: SQUAMOUS CARCINOMA, Dose [Carcinogen]: 5 UG IN 0.1 ML ACETONE THAT ALSO CONTAINED AGENT 3/WK, Promoter: NONE USED
  tumour outcome (control, treated, inhibition, significance): 12/50 (24%), 33/50 (66%), -175%, not calculated

## COc1cc(OC)c2ccc(=O)oc2c1
Carcinogen: 7,12-DIMETHYLBENZ(A)ANTHRACENE, 57-97-6, Dose [Inhibitor]: 0.068 MMOL/G IN DIET FOR 8 D BEGINNING 7 D PRIOR TO CARCINOGEN DOSE (STUDY DURATION: 23 WK), Route [Inhibitor]: ORAL, Species: RAT, Strain/Sex: SPRAGUE-DAWLEY/FEMALE, Target Tissue: Type of Lesion: MAMMARY GLAND: TUMOR, Dose [Carcinogen]: 12 MG IN 1.0 ML OLIVE OIL ONCE ON D 7 OF EXPERIMENT, Promoter: NONE USED
  tumour outcome (control, treated, inhibition, significance): 85%, 38%, 55%, p<0.05
Carcinogen: BENZO[A]PYRENE, 50-32-8, Dose [Inhibitor]: 0.034 MMOL/G IN DIET BEGINNING 1 WK PRIOR TO FIRST CARCINOGEN DOSE AND CONTINUING FOR 3 D POST LAST CARCINOGEN DOSE FOR, Route [Inhibitor]: ORAL, Species: MOUSE, Strain/Sex: ICR/FEMALE, Target Tissue: Type of Lesion: FORESTOMACH: TUMOR, Dose [Carcinogen]: 1 MG IN 0.2 ML CORN OIL 2/WK FOR 4 WK, Promoter: NONE USED
  tumour outcome (control, treated, inhibition, significance): 100%, 94%, 6%, not significant

## COc1cc2c3cc1Oc1c(OC)c(OC)cc4c1[C@@H](Cc1ccc(O)c(c1)Oc1ccc(cc1)C[C@@H]3N(C)CC2)N(C)CC4
Carcinogen: 7,12-DIMETHYLBENZ[A]ANTHRACENE, 57-97-6, Dose [Inhibitor]: 0, 2 UMOL 2/WK 30 MIN PRIOR TO EACH PROMOTER DOSE BEGINNING 1 WK POST CARCINOGEN DOSE (STUDY DURATION: 18 WK), Route [Inhibitor]: DERMAL, Species: MOUSE, Strain/Sex: ICR/FEMALE, Target Tissue: Type of Lesion: SKIN: PAPILLOMA, Dose [Carcinogen]: 50 UG ONCE, Promoter: 12-O-TETRADECANOYLPHORBOL-13-ACETATE, 16561-29-8
  tumour outcome (control, treated, inhibition, significance): 100%, 20%, 80%, not calculated

## CCCCC1OC(=O)C2=CCCCC21 (centres undefined)
Carcinogen: BENZO[A]PYRENE, 50-32-8, Dose [Inhibitor]: 0, 20 MG 3/WK FOR 4 WK ON DAYS OTHER THAN THE CARCINOGEN TREATMENT (STUDY DURATION: 20 WK), Route [Inhibitor]: GAVAGE, Species: MOUSE, Strain/Sex: STRAIN-A/FEMALE, Target Tissue: Type of Lesion: FORESTOMACH: TUMOR, Dose [Carcinogen]: 1 MG IN 0.2 ML COTTONSEED OIL 2/WK FOR 4 WK, Promoter: NONE USED
  tumour outcome (control, treated, inhibition, significance): 13/19 (68%), 2/18 (11%), 84%, p<0.025

## COc1ccc2cc(CCC(C)=O)ccc2c1
Carcinogen: N-METHYL-N-NITROSOUREA, 684-93-5, Dose [Inhibitor]: 0, 0.03% IN DIET FOR 24 WK BEGINNING 1 WK POST CARCINOGEN DOSE (STUDY DURATION: 25 WK), Route [Inhibitor]: ORAL, Species: RAT, Strain/Sex: SPRAGUE-DAWLEY/FEMALE, Target Tissue: Type of Lesion: MAMMARY GLAND: TUMOR, Dose [Carcinogen]: 50 MG/KG ONCE, Promoter: NONE USED
  tumour outcome (control, treated, inhibition, significance): 24/30 (80%), 13/31 (42%), 48%, p<0.005
